{
  "source": "patent US6967218B2",
  "about": "“Pravastatin pharmaceutical formulations and methods of their use” (Biovail Laboratories, Inc., priority 2002, dated 2005)",
  "origin": "cited, not measured here",
  "key": {"[1]": {"settings": "in vivo"}, "[2]": {"settings": "intravenous, healthy volunteers"}, "[3]": {"settings": "Schalke et al, 1992"}},
  "data": [
    {"compound": "CC[C@H](C)C(=O)O[C@H]1C[C@H](O)C=C2C=C[C@H](C)[C@H](CC[C@@H](O)C[C@@H](O)CC(=O)O)[C@H]21", "note": "[pravastatin, Pravastatin]", "values": [
      {"measurement": "first-pass extraction ratio in the liver", "setting": "[1]", "result": 0.66},
      {"measurement": "share of total body clearance by non-renal routes (biliary excretion and biotransformation)", "setting": "[2]", "result": 53, "unit": "%"},
      {"measurement": "share of total body clearance via renal excretion", "setting": "[2]", "result": "approximately 47%"},
      {"measurement": "decrease of systemic bioavailability after bedtime (PM) dose compared to morning (AM) dose", "setting": "PM vs AM dose", "result": 60, "unit": "%"},
      {"measurement": "absolute bioavailability", "setting": "oral, man", "result": 17, "unit": "%"},
      {"measurement": "fraction of radiolabeled oral dose excreted in feces", "setting": "radiolabeled oral dose", "result": 70, "unit": "%"},
      {"measurement": "fraction of radiolabeled oral dose excreted in urine", "setting": "radiolabeled oral dose", "result": "Approximately 20%"},
      {"measurement": "adverse effect observed in treated patients", "setting": "[3]", "result": "Severe myopathy"}
    ]}
  ]
}
